Article PMC6199744, “Development of Chemical Proteomics for the Folateome and Analysis of the Kinetoplastid Folateome” (ACS Infectious Diseases, 2018)

System: L. major lysate proteins
Test: Multitargeted bead mixture chemoproteomics, single concentration competition, proteome-wide
Assay type: binding
Conditions: for fold change / fold change relative to vehicle control: vehicle control = 1; for fold change relative to vehicle control: competition with free ligand

CCCCCCOc1ccc(Cc2cnc(N)nc2N)cc1 [compound 1]
fold change (protein LMJF.22.1460 I/6 AUTOANTIGEN-LIKE PROTEIN): 0.95 | fold change vs vehicle control (protein LMJF.22.1540 ALANYL-TRNA SYNTHETASE, PUTATIVE): 0.85 | fold change vs vehicle control (protein LMJF.23.0370 […] OXIDASE SUBUNIT 10, PUTATIVE): 1.08 | fold change (protein LMJF.23.0830 NA/H ANTIPORTER-LIKE PROTEIN): 0.89 | fold change (protein LMJF.23.1020 HYPOTHETICAL PROTEIN, UNKNOWN FUNCTION): 0.87 | fold change (protein LMJF.23.1220 T-COMPLEX PROTEIN 1, GAMMA SUBUNIT, PUTATIVE): 1.03 | fold change vs vehicle control (protein LMJF.24.0140 ANKYRIN/TPR REPEAT PROTEIN): 1.09 | fold change (protein LMJF.24.0280 DYNEIN INTERMEDIATE-CHAIN-LIKE PROTEIN): 0.97 | fold change (protein LMJF.24.0770 MALIC ENZYME, PUTATIVE): 0.95 | fold change relative to vehicle control (protein LMJF.24.1510 IGE-DEPENDENT HISTAMINE-RELEASING FACTOR, PUTATIVE): 1.09 | fold change vs vehicle control (protein LMJF.24.1630, SUCCINATE DEHYDROGENASE FLAVOPROTEIN, PUTATIVE): 0.9 | fold change vs vehicle control (protein LMJF.24.1840 LYSOPHOSPHOLIPASE, PUTATIVE): 1.07 | fold change relative to vehicle control (protein LMJF.24.2060 TRANSKETOLASE): 0.84 | fold change (protein LMJF.24.2250 FATTY-ACID DESATURASE, PUTATIVE): 1.09 | fold change vs vehicle control (protein LMJF.25.0120 ELECTRON TRANSFER FLAVOPROTEIN, PUTATIVE): 1.75 | fold change vs vehicle control (protein LMJF.25.0260 DYNEIN LIGHT CHAIN 1, CYTOPLASMIC, PUTATIVE): 0.91 | fold change relative to vehicle control (protein LMJF.25.0910 C[…]): 1.46 | fold change vs vehicle control (protein LMJF.25.1180, ATPASE BETA SUBUNIT, PUTATIVE): 1.06 | fold change (protein LMJF.25.1610 HYPOTHETICAL PROTEIN, CONSERVED): 0.79 | fold change (protein LMJF.25.1620 HY[…], CONSERVED): 1.11 | fold change vs vehicle control (protein LMJF.26.1240 HEAT SHOCK PROTEIN 70-RELATED PROTEIN): 1.01 | fold change vs vehicle control (protein LMJF.26.1710 […] OXIDASE SUBUNIT V, PUTATIVE): 1.04 | fold change vs vehicle control (protein LMJF.26.1960 HY[…], CONSERVED): 1.01 | fold change vs vehicle control (protein LMJF.26.2000 HY[…], CONSERVED): 1.05 | fold change vs vehicle control (protein LMJF.27.0420 RIBOKINASE, PUTATIVE): 1.05 | fold change vs vehicle control (protein LMJF.27.1060 CYSTEINE DESULFURASE, PUTATIVE): 0.97 | fold change (protein LMJF.27.1310 ARGINYL-TRNA SYNTHETASE, PUTATIVE): 1.05 | fold change vs vehicle control (protein LMJF.27.2400 HEAT SHOCK PROTEIN DNAJ, PUTATIVE): 0.91 | fold change vs vehicle control (protein LMJF.28.0110 […] 3 SUBUNIT, PUTATIVE): 1.04 | fold change vs vehicle control (protein LMJF.28.0930 HYPOTHETICAL PROTEIN, CONSERVED): 1 | fold change vs vehicle control (protein LMJF.28.0950 HY[…], CONSERVED): 1.07 | fold change vs vehicle control (protein LMJF.28.1950 X-PRO, DIPEPTIDYL-PEPTIDASE,SERINE PEPTIDASE, CLAN SC, FAMILY S15, PUTATIVE): 0.94 | fold change relative to vehicle control (protein LMJF.28.2770 HEAT-SHOCK PROTEIN HSP70, PUTATIVE): 1.15 | fold change (protein LMJF.29.0060 TRYPTOPHANYL-TRNA SYNTHETASE, PUTATIVE): 1 | fold change (protein LMJF.29.0820 CYSTEINE PEPTIDASE C (CPC)): 0.78 | fold change relative to vehicle control (protein LMJF.29.0850 HIGH MOBILITY GROUP PROTEIN HOMOLOG TDP-1, PUTATIVE): 1.77 | fold change vs vehicle control (protein LMJF.29.1160 TRYPAREDOXIN): 1 | fold change (protein LMJF.29.1760 PARAFLAGELLAR ROD PROTEIN 1D, PUTATIVE): 0.77 | fold change vs vehicle control (protein LMJF.29.1780 DIPHTHAMIDE SYNTHESIS PROTEIN, PUTATIVE): 0.62 | fold change vs vehicle control (protein LMJF.29.2240 AMINOPEPTIDASE, PUTATIVE): 0.98 | fold change (protein LMJF.29.2310 ENOYL-COA HYDRATASE/ISOMERASE-LIKE PROTEIN): 0.95 | fold change (protein LMJF.29.2860 40S RIBOSOMAL PROTEIN S19-LIKE PROTEIN): 1.25 | fold change vs vehicle control (protein LMJF.30.0850 SURFACE PROTEIN AMASTIN, PUTATIVE): 0.97 | fold change (protein LMJF.30.1250 PYRIDOXAL KINASE, PUTATIVE): 1.06 | fold change (protein LMJF.30.2580 RETICULON DOMAIN PROTEIN, 22 KDA POTENTIALLY AGGRAVATING PROTEIN (PAPLE22)): 1.3 | fold change vs vehicle control (protein LMJF.30.3190 3-HYDROXY-3-METHYLGLUTARYL-COA REDUCTASE): 0.77 | fold change vs vehicle control (protein LMJF.30.3520 S-ADENOSYL[…]): 1.09 | fold change vs vehicle control (protein LMJF.31.0440 CYTOSKELETON-[…] CAP5 5, PUTATIVE): 0.82 | fold change (protein LMJF.31.1130 N-ACYL-L-AMINO ACID AMIDOHYDROLASE, PUTATIVE): 0.74 | fold change vs vehicle control (protein LMJF.31.1640 THIOLASE PROTEIN-LIKE PROTEIN): 1.14 | fold change (protein LMJF.31.1800 AMINO ACID PERMEASE): 1.07 | fold change (protein LMJF.31.2250 3,2-TRANS-ENOYL-COA ISOMERASE, MIT[…], PUTATIVE): 0.85 | fold change vs vehicle control (protein LMJF.31.2790 ADP-RI[…], PUTATIVE): 1.12 | fold change (protein LMJF.31.3130 METHYLCROTONOYL-COA CARBOXYLASE BIOTINYLATED SUBUNITPROTEIN-LIKE PROTEIN): 0.91 | fold change (protein LMJF.32.0010 HYPOTHETICAL PROTEIN, CONSERVED): 0.92 | fold change vs vehicle control (protein LMJF.32.0400 ATP-DEPENDENT RNA HELICASE, PUTATIVE): 1 | fold change vs vehicle control (protein LMJF.32.0520 PROFILIN, PUTATIVE): 0.98 | fold change (protein LMJF.32.1000 CHAPERONIN CONTAINING T-COMPLEX PROTEIN, PUTATIVE): 0.99 | fold change vs vehicle control (protein LMJF.32.3010 HY[…], CONSERVED,LEUCINE-RICH REPEAT PROTEIN, PUTATIVE): 1.06 | fold change vs vehicle control (protein LMJF.32.3870 MYOSIN XXI): 0.77 | fold change vs vehicle control (protein LMJF.33.0890, HYPOTHETICAL PROTEIN, CONSERVED): 1.1 | fold change vs vehicle control (protein LMJF.33.1070 HYPOTHETICAL PROTEIN, UNKNOWN FUNCTION): 0.91 | fold change (protein LMJF.33.1330 CYSTEINE CONJUGATE BETA-LYASE, AMINOTRANSFERASE- LIKE PROTEIN): 1.04 | fold change (protein LMJF.33.1610 PEPTIDASE M20/M25/M40, PUTATIVE): 0.82 | fold change relative to vehicle control (protein LMJF.33.1630 CYCLOPHILIN 4, PUTATIVE): 1.08 | fold change vs vehicle control (protein LMJF.33.2300 UDP-GLC 4'-EPIMERASE, PUTATIVE): 1.07 | fold change vs vehicle control (protein LMJF.33.2390 HEAT SHOCK PROTEIN, PUTATIVE): 1.41 | fold change (protein LMJF.33.2410 HYPOTHETICAL PROTEIN, CONSERVED): 0.95 | fold change (protein LMJF.33.3150 40S RIBOSOMAL PROTEIN S13, PUTATIVE): 1.11 | fold change (protein LMJF.34.3500 RUVB-LIKE 1 DNA HELICASE, PUTATIVE): 0.93 | fold change (protein LMJF.34.3670 VACUOLAR ATP SYNTHASE CATALYTIC SUBUNIT A, PUTATIVE): 1.02 | fold change (protein LMJF.34.3740 SERINE PALMITOYLTRANSFERASE-LIKE PROTEIN): 0.91 | fold change (protein LMJF.34.4120 HYPOTHETICAL PROTEIN, CONSERVED): 0.82 | fold change vs vehicle control (protein LMJF.34.4370 20S PROTEASOME BETA 7 SUBUNIT, (PUTATIVE)): 0.95 | fold change (protein LMJF.35.0370 ATP-DEPENDENT DEAD-BOX RNA HELICASE, PUTATIVE): 1.01 | fold change vs vehicle control (protein LMJF.35.1380, MITOCHONDRIAL PROCESSING PEPTIDASE, BETA SUBUNIT, PUTATIVE): 0.97 | fold change vs vehicle control (protein LMJF.35.1410 THREONYL-TRNA SYNTHETASE, PUTATIVE): 0.94 | fold change vs vehicle control (protein LMJF.35.1720 CYCLOPHILIN 14, PUTATIVE): 1.02 | fold change (protein LMJF.35.2500 HYPOTHETICAL PROTEIN, CONSERVED): 0.72 | fold change (protein LMJF.35.2730 ACYL-COA DEHYDROGENASE, PUTATIVE): 0.86 | fold change relative to vehicle control (protein LMJF.35.3010 […],TRYPANOTHIONE-DEPENDENT […]): 1.13 | fold change vs vehicle control (protein LMJF.35.3100 ATP-DEPENDENT RNA HELICASE, PUTATIVE): 0.99 | fold change vs vehicle control (protein LMJF.35.3340 6-phosphogluconate dehydrogenase): 1.08 | fold change (protein LMJF.35.3700 GIM5A PROTEIN, PUTATIVE,GLYCOSOMAL MEMBRANE PROTEIN): 0.94 | fold change vs vehicle control (protein LMJF.35.3840, […] 2 SUBUNIT, PUTATIVE): 1.01 | fold change vs vehicle control (protein LMJF.35.3860 T-COMPLEX PROTEIN 1, ETA SUBUNIT, PUTATIVE): 0.99 | fold change (protein LMJF.35.4550 HYPOTHETICAL PROTEIN, CONSERVED): 0.97 | fold change (protein LMJF.35.4770 CYCLOPHILIN 40): 1.17 | fold change (protein LMJF.35.4850 PROTEASOME ALPHA 1 SUBUNIT, PUTATIVE): 0.91 | fold change (protein LMJF.35.4860 HYPOTHETICAL PROTEIN, CONSERVED): 0.85 | fold change relative to vehicle control (protein LMJF.35.5330 ISOPENTENYL-DIPHOSPHATE DELTA-ISOMERASE, PUTATIVE,ISOMERASE, PUTATIVE): 1.62 | fold change vs vehicle control (protein LMJF.36.0180 […] 2): 1.03 | fold change vs vehicle control (protein LMJF.36.0620 HY[…], CONSERVED): 1.34 | fold change vs vehicle control (protein LMJF.36.0990 40S RIBOSOMAL PROTEIN S10, PUTATIVE): 1.1 | fold change vs vehicle control (protein LMJF.36.2020 CHAPERONIN HSP60, MITOCHONDRIAL PRECURSOR): 0.95 | fold change vs vehicle control (protein LMJF.36.3460 HYPOTHETICAL PROTEIN, CONSERVED): 0.82 | fold change (protein LMJF.36.3760 60S RIBOSOMAL PROTEIN L10A, PUTATIVE): 1.26 | fold change vs vehicle control (protein LMJF.36.3840 GLYCYL TRNA SYNTHETASE, PUTATIVE): 0.85 | fold change vs vehicle control (protein LMJF.36.4170 OXIDOREDUCTASE, PUTATIVE): 0.84 | fold change vs vehicle control (protein LMJF.36.5010 40S RIBOSOMAL PROTEIN SA, PUTATIVE): 1.09 | fold change (protein LMJF.36.5390 PHOSPHORIBOSYLPYROPHOSPHATE SYNTHETASE, PUTATIVE): 0.86 | fold change vs vehicle control (protein LMJF.36.5620 ISOLEUCYL-TRNA SYNTHETASE, PUTATIVE): 0.97 | fold change vs vehicle control (protein LMJF.36.6430 PROTEIN TRANSPORT PROTEIN SEC23-LIKE PROTEIN): 0.85 | fold change (protein LMJF.36.6760 HY[…], CONSERVED): 1.01 | fold change vs vehicle control (protein LMJF.36.6910 T-COMPLEX PROTEIN 1, THETA SUBUNIT, PUTATIVE): 1 | fold change vs vehicle control (protein LMJF.36.6940 disulfide isomerase PDI): 1.14 | fold change vs vehicle control (protein LMJF.[…] […] EXOPOLYPHOSPHATASE, PUTATIVE): 1.19
